Results as given in patent US8415342B2, “Besifloxacin ophthalmic composition for the treatment or control of infection” (Bausch & Lomb Incorporated, priority 2008, dated 2013).
In brackets after ≈: the same amount, converted by molar mass. Like-named read-outs stand apart in the source and are kept apart here.

Columns and labels:
Format in all cases: cell-based
[1] = system: S. pneumoniae topoisomerase mutants; experiment: MIC against defined topoisomerase mutants; conditions: Streptococcus pneumoniae
[2] = system: S. aureus topoisomerase mutants; experiment: MIC against defined topoisomerase mutants; conditions: Staphylococcus aureus
[3] = system: E. coli topoisomerase mutants; experiment: MIC against defined topoisomerase mutants; conditions: Escherichia coli
Experimental: Furthermore, an experiment was conducted to assess the mechanism of action of besifloxacin in S. pneumoniae, S. aureus, and E. coli via step selections for isolates with decreased susceptibility to besifloxacin, as well as by testing for altered susceptibilities of ciprofloxacin-resistant variants of all three species containing genetically defined mutations in the quinolone resistance determining regions (QRDRs) of structural genes encoding DNA gyrase and topoisomerase IV (Table 2).

Staphylococcus aureus = experiment: MIC, CLSI broth microdilution, clinical isolates; conditions: for MIC50 / MIC90: Staphylococcus aureus
[4] = system: Staphylococcus epidermidis; experiment: MIC, CLSI broth microdilution, clinical isolates; conditions: for MIC50: Staphylococcus epidermidis
[5] = system: Staphylococcus lugdunensis; experiment: MIC, CLSI broth microdilution, clinical isolates; conditions: Staphylococcus lugdunensis (N = 15)
[6] = system: Staphylococcus saprophyticus; experiment: MIC, CLSI broth microdilution, clinical isolates; conditions: Staphylococcus saprophyticus (N = 101)
[7] = system: Staphylococcus haemolyticus; experiment: MIC, CLSI broth microdilution, clinical isolates; conditions: Staphylococcus haemolyticus (N = 101)
Staphylococcus warneri = experiment: MIC, CLSI broth microdilution, clinical isolates; conditions: Staphylococcus warneri (N = 50)
Staphylococcus hominis = experiment: MIC, CLSI broth microdilution, clinical isolates; conditions: Staphylococcus hominis (N = 50)
Streptococcus agalactiae = experiment: MIC, CLSI broth microdilution, clinical isolates; conditions: Streptococcus agalactiae (N = 100)
Streptococcus pneumoniae = experiment: MIC, CLSI broth microdilution, clinical isolates
Streptococcus pyogenes = experiment: MIC, CLSI broth microdilution, clinical isolates; conditions: Streptococcus pyogenes (N = 101)
[8] = system: Lancefield group C, F, G streptococci; experiment: MIC, CLSI broth microdilution, clinical isolates; conditions: G streptococci (N = 50)
Viridans streptococci = experiment: MIC, CLSI broth microdilution, clinical isolates; conditions: Viridans streptococci (N = 156)
Citrobacter koseri = experiment: MIC, CLSI broth microdilution, clinical isolates; conditions: Citrobacter koseri (N = 100)
Klebsiella oxytoca = experiment: MIC, CLSI broth microdilution, clinical isolates; conditions: Klebsiella oxytoca (N = 50)
Haemophilus influenzae = experiment: MIC, CLSI broth microdilution, clinical isolates; conditions: for MIC50 / MIC90: Haemophilus influenzae
Legionella pneumophila = experiment: microbe, parasite or virus in culture
Moraxella catarrhalis = experiment: MIC, CLSI broth microdilution, clinical isolates; conditions: Moraxella catarrhalis (N = 101)
Morganella morganii = experiment: MIC, CLSI broth microdilution, clinical isolates; conditions: Morganella morganii (N = 51)
[9] = Staphylococcus aureus (CNS, N = 16)
[10] = Staphylococcus aureus (CS, N = 14)
[11] = Staphylococcus aureus (MSSA, N = 19)
[12] = Staphylococcus aureus (all phenotypes, N = 30)
[13] = MRSA, Staphylococcus aureus (MRSA, N = 11)
[14] = MSSA, Staphylococcus aureus (MSSA, N = 19)
[15] = Staphylococcus epidermidis (CNS, N = 6)
[16] = Staphylococcus epidermidis (CS, N = 9)
[17] = Staphylococcus epidermidis (MRSE, N = 9)
[18] = Staphylococcus epidermidis (MSSE, N = 6)
[19] = Staphylococcus epidermidis (all phenotypes, N = 15)
[20] = Streptococcus pneumoniae (PSSP, N = 31)
[21] = Haemophilus influenzae (all phenotypes, N = 40)
[22] = Haemophilus influenzae (bla negative, N = 24)
[23] = Haemophilus influenzae (bla positive, N = 16)

O=C(O)c1cn(C2CC2)c2cc(N3CCNCC3)c(F)cc2c1=O [Ciprofloxacin]
MIC ([1]; S. pneumoniae parC S79Y): 8 µg/mL (≈ 24.1 µM)
MIC ([1]; S. pneumoniae parC S79Y + gyrA S81F): 64 µg/mL
MIC ([2]; S. aureus Wild type): 1 µg/mL (≈ 3.02 µM)
MIC ([2]; S. aureus parC S80F + gyrA S84L): 64 µg/mL
MIC ([3]; E. coli Wild type): 0.008 µg/mL (≈ 0.0241 µM)
MIC ([3]; E. coli gyrA D87Y (or S83L)): 0.12 µg/mL (≈ 0.362 µM)
MIC ([3]; E. coli gyrA S83L + parC S80R): 4 µg/mL
MIC ([3]; E. coli gyrA S83L + parE H445L): 0.12 µg/mL
MIC ([3]; E. coli gyrB D426N): 0.03 µg/mL (≈ 0.0905 µM)

NC[C@H]1O[C@H](O[C@H]2[C@H](O)[C@@H](O[C@H]3O[C@H](CO)[C@@H](O)[C@H](N)[C@H]3O)[C@H](N)C[C@@H]2N)[C@H](N)C[C@@H]1O [Tobramycin]
% S (Staphylococcus aureus; [9]): 68.8%
% S (Staphylococcus aureus; [10]): 92.9%
MIC Range (Staphylococcus aureus; [10]): 0.12 to 8 µg/mL
% S (Staphylococcus aureus; Staphylococcus aureus (MRSA, N = 11)): 54.5%
% S (Staphylococcus aureus; [11]): 94.7%
MIC Range (Staphylococcus aureus; [11]): 0.12 to 8 µg/mL
% S (Staphylococcus aureus; [12]): 80.0%
MIC50 (Staphylococcus aureus; [13]): 1 µg/mL (≈ 2.14 µM)
MIC90 (Staphylococcus aureus; [13]): > 32 µg/mL
MIC50 (Staphylococcus aureus; [14]): 0.25 µg/mL (≈ 0.535 µM)
MIC90 (Staphylococcus aureus; [14]): 1 µg/mL (≈ 2.14 µM)
MIC50 (Staphylococcus aureus; [9]): 0.5 µg/mL (≈ 1.07 µM)
MIC90 (Staphylococcus aureus; [9]): > 32 µg/mL
MIC50 (Staphylococcus aureus; [10]): 0.25 µg/mL (≈ 0.535 µM)
MIC90 (Staphylococcus aureus; [10]): 1 µg/mL (≈ 2.14 µM)
MIC50 (Staphylococcus aureus; [12]): 0.5 µg/mL (≈ 1.07 µM)
MIC90 (Staphylococcus aureus; [12]): > 32 µg/mL
% S [4, 15]: 83.3%
MIC Range [4, 15]: 0.06 to 16 µg/mL
% S [4, 16]: 88.9%
MIC Range [4, 16]: ≦0.008-8 μg/mL
% S [4, 17]: 77.8%
MIC Range [4, 17]: 0.03 to 16 µg/mL
% S [4, 18]: 100.0%
MIC Range [4, 18]: ≦0.008-0.06 μg/mL
% S [4, 19]: 86.7%
MIC90 [4, 19]: 8 µg/mL (≈ 17.1 µM)
MIC Range [4, 19]: ≦0.008-16 μg/mL
MIC50 ([4]; MRSE, Staphylococcus epidermidis (MRSE, N = 9)): 4 µg/mL (≈ 8.56 µM)
MIC50 [4, 15]: 2 µg/mL (≈ 4.28 µM)
MIC50 [4, 16]: 0.03 µg/mL (≈ 0.0642 µM)
MIC50 [4, 18]: 0.03 µg/mL (≈ 0.0642 µM)
MIC50 [4, 19]: 0.06 µg/mL (≈ 0.128 µM)
% S [5]: 60.0%
MIC50 [5]: 0.12 µg/mL (≈ 0.257 µM)
MIC90 [5]: 32 µg/mL (≈ 68.4 µM)
% S [6]: 99.0%
MIC50 [6]: 0.015 µg/mL (≈ 0.0321 µM)
MIC90 [6]: 0.06 µg/mL (≈ 0.128 µM)
MIC Range [6]: ≦0.008-32 μg/mL
% S [7]: 64.4%
MIC50 [7]: 2 µg/mL (≈ 4.28 µM)
MIC90 [7]: 32 µg/mL (≈ 68.4 µM)
% S (Staphylococcus warneri): 86.0%
MIC50 (Staphylococcus warneri): 0.06 µg/mL (≈ 0.128 µM)
MIC90 (Staphylococcus warneri): 8 µg/mL (≈ 17.1 µM)
% S (Staphylococcus hominis): 32.0%
MIC50 (Staphylococcus hominis): 16 µg/mL (≈ 34.2 µM)
MIC90 (Staphylococcus hominis): 32 µg/mL (≈ 68.4 µM)
MIC50 (Streptococcus agalactiae; read-out: MIC50): 32 µg/mL (≈ 68.4 µM)
MIC90 (Streptococcus agalactiae; read-out: MIC90): 64 µg/mL (≈ 137 µM)
MIC Range (Streptococcus pneumoniae; Streptococcus pneumoniae (PISP, N = 2)): 16 to 32 µg/mL
MIC Range (Streptococcus pneumoniae; Streptococcus pneumoniae (PRSP, N = 2)): 16 to 32 µg/mL
MIC50 (Streptococcus pneumoniae; [20]): 16 µg/mL (≈ 34.2 µM)
MIC90 (Streptococcus pneumoniae; [20]): 32 µg/mL (≈ 68.4 µM)
MIC Range (Streptococcus pneumoniae; [20]): 8 to 32 µg/mL
MIC Range (Streptococcus pneumoniae; Streptococcus pneumoniae (all phenotypes, N = 35)): 8 to 32 µg/mL
MIC50 (Streptococcus pneumoniae; Streptococcus pneumoniae (all phenotypes, N = 35), read-out: MIC50): 16 µg/mL (≈ 34.2 µM)
MIC90 (Streptococcus pneumoniae; Streptococcus pneumoniae (all phenotypes, N = 35), read-out: MIC90): 32 µg/mL (≈ 68.4 µM)
MIC Range (Streptococcus pyogenes): 4 to 64 µg/mL
MIC50 (Streptococcus pyogenes; read-out: MIC50): 16 µg/mL (≈ 34.2 µM)
MIC90 (Streptococcus pyogenes; read-out: MIC90): 16 µg/mL (≈ 34.2 µM)
MIC Range [8]: 2 to 32 µg/mL
MIC50 ([8]; read-out: MIC50): 8 µg/mL (≈ 17.1 µM)
MIC90 ([8]; read-out: MIC90): 16 µg/mL (≈ 34.2 µM)
MIC Range (Viridans streptococci): 0.5 to 128 µg/mL
MIC50 (Viridans streptococci; read-out: MIC50): 16 µg/mL (≈ 34.2 µM)
MIC90 (Viridans streptococci; read-out: MIC90): 32 µg/mL (≈ 68.4 µM)
% S (Citrobacter koseri): 99.0%
MIC50 (Citrobacter koseri): 0.5 µg/mL (≈ 1.07 µM)
MIC90 (Citrobacter koseri): 1 µg/mL (≈ 2.14 µM)
MIC Range (Citrobacter koseri): 0.25 to 16 µg/mL
% S (Klebsiella oxytoca): 96.0%
MIC50 (Klebsiella oxytoca): 0.5 µg/mL (≈ 1.07 µM)
MIC90 (Klebsiella oxytoca): 1 µg/mL (≈ 2.14 µM)
MIC Range (Klebsiella oxytoca): 0.25 to 8 µg/mL
MIC Range (Haemophilus influenzae; [21]): 0.06 to 4 µg/mL
MIC Range (Haemophilus influenzae; [22]): 0.06 to 4 µg/mL
MIC Range (Haemophilus influenzae; [23]): 0.5 to 4 µg/mL
MIC50 (Haemophilus influenzae; [21]): 2 µg/mL (≈ 4.28 µM)
MIC90 (Haemophilus influenzae; [21]): 4 µg/mL (≈ 8.56 µM)
MIC50 (Haemophilus influenzae; [22]): 2 µg/mL (≈ 4.28 µM)
MIC90 (Haemophilus influenzae; [22]): 4 µg/mL (≈ 8.56 µM)
MIC50 (Haemophilus influenzae; [23]): 2 µg/mL (≈ 4.28 µM)
MIC90 (Haemophilus influenzae; [23]): 2 µg/mL (≈ 4.28 µM)
MIC50 (Legionella pneumophila; Legionella pneumophila): 1 µg/mL (≈ 2.14 µM)
MIC90 (Legionella pneumophila; Legionella pneumophila): 2 µg/mL (≈ 4.28 µM)
MIC Range (Legionella pneumophila; Legionella pneumophila (N = 50)): 0.25 to 4 µg/mL
MIC50 (Moraxella catarrhalis): 0.25 µg/mL (≈ 0.535 µM)
MIC90 (Moraxella catarrhalis): 0.25 µg/mL (≈ 0.535 µM)
MIC Range (Moraxella catarrhalis): 0.03 to 0.5 µg/mL
% S (Morganella morganii): 90.2%
MIC50 (Morganella morganii): 1 µg/mL (≈ 2.14 µM)
MIC90 (Morganella morganii): 4 µg/mL (≈ 8.56 µM)
MIC Range (Morganella morganii): 0.25 to 32 µg/mL
